Measurements reported in publication PMC6941952, “A homogeneous bioluminescent immunoassay to probe cellular signaling pathway regulation” (Communications Biology, 2020).
Where “and” joins values, the source holds several entries; their conditions need not be identical. Identical values can stand only once. Like-named read-outs stand apart in the source and are kept apart here.

Target: T1, estrogen receptors (ER) (Homo sapiens, UniProt P03372)
T1 sequence (P03372 1-595): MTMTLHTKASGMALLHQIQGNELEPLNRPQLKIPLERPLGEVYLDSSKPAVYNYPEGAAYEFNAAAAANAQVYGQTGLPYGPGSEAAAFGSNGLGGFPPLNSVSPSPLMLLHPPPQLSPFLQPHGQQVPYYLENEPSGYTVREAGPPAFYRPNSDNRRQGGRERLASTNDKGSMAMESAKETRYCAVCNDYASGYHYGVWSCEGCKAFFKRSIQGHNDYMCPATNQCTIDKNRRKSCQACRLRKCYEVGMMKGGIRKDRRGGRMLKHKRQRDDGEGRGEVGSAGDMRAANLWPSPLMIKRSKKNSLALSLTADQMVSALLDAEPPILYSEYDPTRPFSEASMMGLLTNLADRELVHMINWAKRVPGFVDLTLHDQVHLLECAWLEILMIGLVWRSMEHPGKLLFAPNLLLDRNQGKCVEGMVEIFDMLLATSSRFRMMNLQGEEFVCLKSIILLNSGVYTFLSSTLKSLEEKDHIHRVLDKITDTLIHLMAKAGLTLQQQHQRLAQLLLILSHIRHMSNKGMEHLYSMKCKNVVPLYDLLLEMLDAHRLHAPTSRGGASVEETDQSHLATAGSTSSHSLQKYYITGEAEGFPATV
Conditions: 4 h; for Total ER protein (%) / protein (%) ER: replicate
Experimental: Prior to NanoBiT Cell-Based Immunoassay, 50,000 cells were seeded in 160 µl of complete growth media per well of a 96-well plate and incubated overnight. […] If necessary, the cell culture media were replaced with serum-free media after the cells were stably adherent on the plate and incubated overnight. To treat cells with activators or inhibitors, medium was changed to 30 µl of medium containing inhibitors. If activation of a specific pathway is needed, the cells were stimulated with 10 µl of medium containing activators. To lyse the cells, 10 µl of lysis buffer containing 0.1% digitonin diluted in 1X immunoassay buffer with protease and phosphatase inhibitors was added and the plates were mixed vigorously for 20 min. Then, 50 µl of an antibody mix containing two primary antibodies against the target protein and NanoBiT detecting antibodies (0.3 µl each per well), diluted in 1X immunoassay buffer was added to the lysates. The plates were incubated at 23 °C for 90 min, followed by the addition of 25 µl of Nano-Glo® reagent consisting of Nano-Glo® Luciferase Assay Substrate mixed with 1X immunoassay buffer. Luminescence was measured using a plate-reading luminometer.
All 96-well assay plates were read using a GloMax® 96 Microplate Luminometer from Promega. The instrument was set to 0.5 s integration time. In order to obtain net change of signal, the reagent background values (signal from the well containing all reagent except primary antibodies) were subtracted from the sample values. To plot and analyze the data, Microsoft Excel and GraphPad Prism® Software were used. IC50 values were determined by using a nonlinear regression fit to a sigmoidal dose response (variable slope).

[1] = Fulvestrant 0.0976562 nM, MCF-7, Fig 7c
[2] = Fulvestrant 0.195312 nM, MCF-7, Fig 7c
[3] = Fulvestrant 0.390625 nM, MCF-7, Fig 7c
[4] = Fulvestrant 0.78125 nM, MCF-7, Fig 7c
[5] = Fulvestrant 1.5625 nM, MCF-7, Fig 7c
[6] = Fulvestrant 3.125 nM, MCF-7, Fig 7c
[7] = Fulvestrant 6.25 nM, MCF-7, Fig 7c
[8] = Fulvestrant 25 nM, MCF-7, Fig 7c
[9] = Fulvestrant 50 nM, MCF-7, Fig 7c
[10] = Fulvestrant 100 nM, MCF-7, Fig 7c

C[C@]12CC[C@@H]3c4ccc(O)cc4C[C@@H](CCCCCCCCC[S+]([O-])CCCC(F)(F)C(F)(F)F)[C@H]3[C@@H]1CC[C@@H]2O (some centres unmarked) [Fulvestrant]
Average Total ER protein (%) (0.0976562 nM, MCF-7, Fig 7b): 100% | Raw data ER (0.0976562 nM, MCF-7, Fig 7b): 1203000 and 1328000 | Subtract reagent background ER (0.0976562 nM, MCF-7, Fig 7b): 1167700 and 974100 and 1096600 | Total ER protein (%) (0.0976562 nM, MCF-7, Fig 7b): 102.1% and 102.0% | Raw data ER (0.195312 nM, MCF-7, Fig 7b): 1310000 and 1183000 and 1306000 | Subtract reagent background ER (0.195312 nM, MCF-7, Fig 7b): 1076600 and 955300 and 1077400 | Total ER protein (%) (0.195312 nM, MCF-7, Fig 7b): 94.2% and 100.2% | Average Total ER protein (%) (0.390625 nM, MCF-7, Fig 7b): 88% | Raw data ER (0.390625 nM, MCF-7, Fig 7b): 1176000 and 1121000 | Subtract reagent background ER (0.390625 nM, MCF-7, Fig 7b): 945500 and 891700 and 1008700 | Total ER protein (%) (0.390625 nM, MCF-7, Fig 7b): 82.7% and 87.9% and 93.8% | Average Total ER protein (%) (0.78125 nM, MCF-7, Fig 7b): 73% | Raw data ER (0.78125 nM, MCF-7, Fig 7b): 1017000 and 962500 and 1057000 | Subtract reagent background ER (0.78125 nM, MCF-7, Fig 7b): 788000 and 733700 and 828700 | Total ER protein (%) (0.78125 nM, MCF-7, Fig 7b): 68.9% and 72.3% and 77.1% | Average Total ER protein (%) (1.5625 nM, MCF-7, Fig 7b): 52% | Raw data ER (1.5625 nM, MCF-7, Fig 7b): 787000 and 772400 and 799700 | Subtract reagent background ER (1.5625 nM, MCF-7, Fig 7b): 564400 and 548300 and 571400 | Total ER protein (%) (1.5625 nM, MCF-7, Fig 7b): 49.4% and 54.1% and 53.2% | Average Total ER protein (%) (3.125 nM, MCF-7, Fig 7b): 36% | Raw data ER (3.125 nM, MCF-7, Fig 7b): 594200 and 628300 | Subtract reagent background ER (3.125 nM, MCF-7, Fig 7b): 405200 and 370300 and 399100 | Total ER protein (%) (3.125 nM, MCF-7, Fig 7b): 35.4% and 36.5% and 37.1% | Average Total ER protein (%) (6.25 nM, MCF-7, Fig 7b): 29% | Raw data ER (6.25 nM, MCF-7, Fig 7b): 540300 and 521900 | Subtract reagent background ER (6.25 nM, MCF-7, Fig 7b): 294500 and 313200 | Total ER protein (%) (6.25 nM, MCF-7, Fig 7b): 27.5% and 29.0% and 29.1% | Average Total ER protein (%) (25 nM, MCF-7, Fig 7b): 23% | Raw data ER (25 nM, MCF-7, Fig 7b): 474000 and 455500 and 481300 | Subtract reagent background ER (25 nM, MCF-7, Fig 7b): 248500 and 229500 and 255100 | Total ER protein (%) (25 nM, MCF-7, Fig 7b): 21.7% and 22.6% and 23.7% | Average Total ER protein (%) (50 nM, MCF-7, Fig 7b): 22% | Raw data ER (50 nM, MCF-7, Fig 7b): 467500 and 453000 and 467700 | Subtract reagent background ER (50 nM, MCF-7, Fig 7b): 244000 and 227100 and 240600 | Total ER protein (%) (50 nM, MCF-7, Fig 7b): 21.3% and 22.4% | Average Total ER protein (%) (100 nM, MCF-7, Fig 7b): 21% | Raw data ER (100 nM, MCF-7, Fig 7b): 455900 and 441400 and 453000 | Subtract reagent background ER (100 nM, MCF-7, Fig 7b): 231900 and 220300 and 227600 | Total ER protein (%) (100 nM, MCF-7, Fig 7b): 20.3% and 21.7% and 21.2% | Average ER protein (%) [1]: 104.6% | Raw data ER [1]: 1438000 and 1444000 and 1315000 | Subtract reagent background ER [1]: 1210700 and 1216700 and 1087700 | protein (%) ER [1]: 106.1% and 108.4% and 99.4% | Average ER protein (%) [2]: 107.5% | Raw data ER [2]: 1431000 and 1445000 and 1414000 | Subtract reagent background ER [2]: 1204100 and 1218100 and 1187100 | protein (%) ER [2]: 105.5% and 108.5% and 108.4% | Average ER protein (%) [3]: 98.2% | Raw data ER [3]: 1290000 and 1346000 and 1340000 | Subtract reagent background ER [3]: 1063550 and 1119550 and 1113550 | protein (%) ER [3]: 93.2% and 99.7% and 101.7% | Average ER protein (%) [4]: 82.3% | Raw data ER [4]: 1111000 and 1176000 | Subtract reagent background ER [4]: 884650 and 927650 and 949650 | protein (%) ER [4]: 77.5% and 82.6% and 86.7% | Average ER protein (%) [5]: 59.5% | Raw data ER [5]: 890700 and 898000 and 891300 | Subtract reagent background ER [5]: 663400 and 670700 and 664000 | protein (%) ER [5]: 58.2% and 59.7% and 60.7% | Average ER protein (%) [6]: 41.1% | Raw data ER [6]: 677900 and 688400 and 691000 | Subtract reagent background ER [6]: 452050 and 462550 and 465150 | protein (%) ER [6]: 39.6% and 41.2% and 42.5% | Average ER protein (%) [7]: 31.0% | Raw data ER [7]: 573300 and 576800 and 566100 | Subtract reagent background ER [7]: 351400 and 340700 | protein (%) ER [7]: 30.5% and 31.3% and 31.1% | Average ER protein (%) [8]: 24.2% | Raw data ER [8]: 499600 and 500900 and 484100 | Subtract reagent background ER [8]: 275200 and 276500 and 259700 | protein (%) ER [8]: 24.1% and 24.6% and 23.7% | Average ER protein (%) [9]: 22.7% | Raw data ER [9]: 476500 and 482700 and 473700 | Subtract reagent background ER [9]: 253450 and 259650 and 250650 | protein (%) ER [9]: 22.2% and 23.1% and 22.9% | Average ER protein (%) [10]: 20.4% | Raw data ER [10]: 453900 and 451400 and 438800 | Subtract reagent background ER [10]: 234150 and 231650 and 219050 | protein (%) ER [10]: 20.5% and 20.6% and 20.0% | lowering of total ER protein level (MCF-7 cells, titration): over 80%
